Results taken from ChEMBL document CHEMBL1128213, “1-Phenyl-3-(aminomethyl)pyrroles as potential antipsychotic agents. Synthesis and dopamine receptor binding” (J Med Chem, 1995).

Assays:
D(3) dopamine receptor = D(3) dopamine receptor (Chlorocebus aethiops, UniProt P52703)
Description: Displacement of [3H]-YM 09151 from african monkey Dopamine receptor D3

D(4) dopamine receptor = molecular target: T1, D(4) dopamine receptor (Homo sapiens, UniProt P21917)
T1 sequence (P21917 whole entry): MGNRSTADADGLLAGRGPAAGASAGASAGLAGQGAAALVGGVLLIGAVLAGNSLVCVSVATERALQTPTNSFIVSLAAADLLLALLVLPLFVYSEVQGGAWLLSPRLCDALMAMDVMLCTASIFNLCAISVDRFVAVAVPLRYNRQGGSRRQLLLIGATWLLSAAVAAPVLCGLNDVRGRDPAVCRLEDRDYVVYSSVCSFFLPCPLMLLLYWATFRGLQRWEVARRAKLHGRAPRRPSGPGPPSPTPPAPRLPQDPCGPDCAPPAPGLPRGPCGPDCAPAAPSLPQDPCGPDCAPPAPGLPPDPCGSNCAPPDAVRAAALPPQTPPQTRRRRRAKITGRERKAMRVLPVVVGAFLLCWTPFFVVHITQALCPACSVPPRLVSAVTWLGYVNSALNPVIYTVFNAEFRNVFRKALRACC
Description: Displacement of [3H]-YM 09151 from human Dopamine receptor D4

D(2) dopamine receptor = D(2) dopamine receptor (Rattus norvegicus, UniProt P61169); experiment: Binding affinity towards Dopamine receptor D2 of rat using [3H]spiperone
Chain of D(2) dopamine receptor (P61169 whole entry): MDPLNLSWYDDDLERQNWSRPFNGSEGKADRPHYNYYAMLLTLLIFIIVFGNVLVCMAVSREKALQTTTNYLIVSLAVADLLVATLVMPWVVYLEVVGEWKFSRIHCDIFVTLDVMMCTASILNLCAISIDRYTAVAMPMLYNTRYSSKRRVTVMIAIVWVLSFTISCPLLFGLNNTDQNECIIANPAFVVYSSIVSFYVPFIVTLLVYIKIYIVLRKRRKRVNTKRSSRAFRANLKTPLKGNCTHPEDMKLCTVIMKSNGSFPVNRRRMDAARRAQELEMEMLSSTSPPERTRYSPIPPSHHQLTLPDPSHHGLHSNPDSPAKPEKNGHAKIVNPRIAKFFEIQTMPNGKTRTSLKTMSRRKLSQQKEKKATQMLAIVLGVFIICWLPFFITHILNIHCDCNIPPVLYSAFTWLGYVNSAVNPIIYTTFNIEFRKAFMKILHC

Chain of D(3) dopamine receptor (P52703 whole entry): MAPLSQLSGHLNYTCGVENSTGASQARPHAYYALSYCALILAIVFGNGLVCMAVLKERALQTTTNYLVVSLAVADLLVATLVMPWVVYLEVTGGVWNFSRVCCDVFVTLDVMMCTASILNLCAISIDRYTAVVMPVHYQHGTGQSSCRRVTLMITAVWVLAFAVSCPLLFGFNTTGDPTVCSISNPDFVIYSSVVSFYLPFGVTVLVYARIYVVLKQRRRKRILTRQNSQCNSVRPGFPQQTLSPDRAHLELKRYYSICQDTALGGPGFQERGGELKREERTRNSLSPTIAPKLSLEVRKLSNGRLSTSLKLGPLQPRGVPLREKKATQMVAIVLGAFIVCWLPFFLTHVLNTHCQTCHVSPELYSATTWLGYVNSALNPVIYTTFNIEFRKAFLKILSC

Row | SMILES | Ki (D(3) dopamine receptor) [µM] | Ki (D(4) dopamine receptor) [µM] | Ki (D(2) dopamine receptor) [µM]
1 | c1ccc(C2CCN(Cc3ccn(-c4ccccc4)c3)CC2)cc1 | 0.061 | 0.009 | 
2 | OC1(c2ccc(Cl)cc2)CCN(Cc2ccn(-c3ccccc3)c2)CC1 | 0.477 | 0.325 | 
3 | COc1ccccc1N1CCN(Cc2ccc(-c3ccccc3)n2C)CC1 |  |  | 0.0008
4 | CN1CCN(C2=Nc3cc(Cl)ccc3Nc3ccccc32)CC1 [CLOZAPINE] | 0.466 |  | 
5 | COc1ccccc1N1CCN(Cc2ccn(-c3ccccc3)c2)CC1 |  | 0.0013 | 
6 | O=C1NCN(c2ccccc2)C12CCN(Cc1ccn(-c3ccccc3)c1)CC2 | 0.09 | 0.201 | 
7 | O=c1[nH]c2ccccc2n1C1CCN(Cc2ccn(-c3ccccc3)c2)CC1 | 0.398 | 0.646 | 
8 | c1ccc(-n2ccc(CN3CCN(c4ccccn4)CC3)c2)cc1 | 0.15 | 0.0016 | 
9 | c1ccc(N2CCN(Cc3ccn(-c4ccccc4)c3)CC2)cc1 | 0.049 | 0.004 | 
10 | C1=C(c2ccccc2)CCN(Cc2ccn(-c3ccccc3)c2)C1 |  | 0.004 | 
11 | OC1(c2cccc(C(F)(F)F)c2)CCN(Cc2ccn(-c3ccccc3)c2)CC1 | 0.42 | 0.492 | 
